Blank lines part the entries; values can stand above or below the substance they belong to. Ends that are not written are not given here. Cy5.5 = near infrared dye label
Experiments:
colonic dysplasia = experiment: In vivo fluorescence endoscopy of colon in CPC;Apc mouse; details: for fluorescence signal from dysplasia on endoscopy: CPC;Apc mouse colon
Excerpt: A genetically engineered mouse model (Cpc;Apc) that spontaneously forms adenomatous polyps in the colon was used for this study and handled according to Institutional Guidelines. The colons of anesthetized mice were first cleaned with water before imaging with a small animal endoscope (Karl Storz Veterinary Endoscope) using the white light channel to locate polyps by identifying anatomic landmarks and the distance of the endoscope tip from the anus. […] Fluorescent and reflectance images were then collected with the same endoscope set to the appropriate channels. Once in vivo imaging was complete, four of the mice used in the study were euthanized and colons harvested. Polyps and flat lesions detected during fluorescence imaging were located, removed, and processed for histology (H&E).
These mice are genetically-engineered to spontaneously develop colonic dysplasia, and the colonic lesions that develop are molecularly and histologically similar to that seen in human disease, making these mice a good model for monitoring cancer development. Because the extra-cellular domain of claudin-1 is completely homologous between human and mouse, peptides developed for human targets can be directly used in mouse imaging experiments. […] CPC;Apc mice were imaged at ˜3 months of age when they first begin to develop dysplasia. […] After imaging is completed, mice were euthanized, and the colons were resected. Based on the location of dysplastic lesions determined using fluorescence images collected with endoscopy, a pathologist measured the depth of dysplasia on histology, as shown by the dashed arrow in FIG. 7E. […] Images are obtained from mice over at least three sessions separated by 1 week to monitor for cancer progression.

claudin-1 (CLDN1) = target: T1, claudin-1 (CLDN1) (Homo sapiens, UniProt O95832); experiment: siRNA knockdown of CLDN1 expression, peptide and antibody binding to SW620 cells; assay type: cell-based
T1 construct: endogenous in cells; host or cells: SW620 human colorectal adenocarcinoma cells
T1 sequence (O95832 1-211): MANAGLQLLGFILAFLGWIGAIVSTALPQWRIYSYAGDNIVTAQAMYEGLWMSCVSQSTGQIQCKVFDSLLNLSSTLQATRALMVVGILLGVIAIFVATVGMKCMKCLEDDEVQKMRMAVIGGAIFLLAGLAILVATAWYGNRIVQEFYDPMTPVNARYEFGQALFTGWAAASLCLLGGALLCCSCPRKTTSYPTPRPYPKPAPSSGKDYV
Description: CLDN1 expression was knocked down using Dharmacon On-Target Plus SMARTpool Human CLDN1 siRNA (Thermo Scientific) according to the manufacturer's protocol. SW620 cells were plated overnight on coverslips in a 12-well plate at 0.2×10^6 cells/mL. The following day, cells were transfected with 3 μL DharmaFECT1 and either 25 nM CLDN1 or control siRNA. After 72 h, transfected cells were analyzed for CLDN1 expression through immunocytochemistry, a peptide binding study, or a Western blot of the cell lysate. For the immunocytochemistry experiment, cells were fixed with ice-cold methanol for 20 minutes at −20° C., blocked for 1 h at RT with PBS+2% BSA, stained with anti-human CLDN1 antibody at 5 μg/mL for 1 h at RT, then with goat anti-Rabbit AF488 (1:500) for 1 h at RT before being mounted on slides with DAPI with Prolong Gold. siRNA-transfected cells were also stained with 5 μM RTS-Cy5.5 or SPT-Cy5.5 for 30 minutes at 4° C., fixed with 4% PFA for 10 minutes at RT, then mounted on slides. Simultaneously, transfected cells were lysed with RIPA buffer containing Roche Mini-Complete EDTA-free Protease Inhibitor for 10 minutes on ice, collected and spun at 20,000×g for 10 minutes at 4° C. Supernatant was saved, total protein concentration quantified via a BCA assay, and 10 ug protein of each sample run on a Novex 4-20% 1.5 mm protein gel before transferring to a PVDF membrane. The membrane was blocked with PBST+5% non-fat milk for 1 h at 4° C., stained with either rabbit anti-CLDN1 Ab or mouse anti-tubulin Ab at 4° C. overnight, then with anti-rabbit HRP (1:500, for CLDN1) or anti-mouse HRP (1:500, for tubulin) for 1 h at RT before developing.
The specificity of peptide binding was validated on siRNA knockdown. […] These cells were transfected with siRNA to knockdown cell surface expression of claudin-1. […] The fluorescence intensities (mean±std) are shown (FIG. 2H). […] Given the experimental design and mean-squared-errors shown in FIG. 2H, with triplicate slides we have 98% power to obtain P<0.01 for interactions that show a 3-fold difference of differences.

T84 monolayers = experiment: Transepithelial electrical resistance (TEER) and tight junction immunofluorescence; assay type: cell-based, human
Description: T84 human colon carcinoma cells were grown in a 1:1 mixture of DMEM and Ham's F-12 culture medium supplemented with 5% FBS. To establish polarized monolayer, the cells were plated on transwell permeable polyester supports (1.12 cm^2, pore size 3 μm, Costar) until they reached confluence after ˜3-4 days, as determined by an increase in TEER.43 The cells were continually grown on transwell supports until the TEER reached ˜2000 Ω-cm^2. […] TEER was then measured at 6, 12 and 24 hours. The cells were fixed with 4% PFA for 12 min. After brief washing, 1% SDS in PBS was used to permeabilize the cells. These procedures were followed by 3% goat serum in PBS blocking for 30 min. Mouse anti-zonula occludens-1 (anti-ZO-1) (1:250, Life Technologies) and rabbit anti-claudin-1 (1:200, Life Technologies) antibodies were diluted in block buffer and incubated in humidity box overnight at 4° C. and fluorescent secondary antibodies were diluted to 1:1000 and incubated for 1 hour at RT. All images were obtained using Nikon A1 confocal microscope (MIL, University of Michigan).
We evaluated the effect of peptide binding on tight junction function using a polarized monolayer of T84 cells plated on transwell supports.

[1] = system: human colonic adenocarcinoma cells (SW620, SW480, HT29, HCT116); experiment: Cell binding assay on adenocarcinoma cell panel and co-localization with anti-claudin-1 antibody; assay type: cell-based
Description: SW620, SW480, and HT29 cells were plated at 0.5×10^6 cells/mL on coverslips on 12-well plates. The following day, the cells were treated with either 10 μM either RTS*-Cy5.5 or SPT*-Cy5.5 for 1 h at 4° C., fixed with 4% PFA for 10 minutes at RT, then counterstained with DAPI with Prolong Gold. Fluorescent images were collected and analyzed as detailed above. Statistical analysis was performed using a one-way ANOVA analysis on GraphPad Prism.
The cells were incubated with the peptide (10 μM) at 4° C. for 1 hour, washed 3× with PBS, fixed with 4% PFA, and mounted with ProLong Gold containing DAPI (Invitrogen). The mean (±std) fluorescence intensities were quantified using custom Matlab software (FIG. 5F). Levels of claudin-1 expression from cytosol (C) and membrane (M) of cells are shown on western blot (FIG. 5G). The cells were then incubated with 1:50 dilution of primary anti-claudin-1 rabbit mAb (4267, Invitrogen) for 1 hour at 4° C., and washed 3× with PBS at RT. The cells were further incubated with 1:500 dilution of […] labeled with Alexa Fluor 488 (Invitrogen) for 1 hour at RT. Co-localization of peptide (red) and antibody (green) binding to SW620 cells can be appreciated on the overlay fluorescence image (FIG. 5H). A Pearson's correlation of ρ=0.56 was calculated using custom Matlab software.

human colonic tissues = experiment: Ex vivo staining of human colonic tissue sections
Description: Human colon tissue was obtained through consenting patents at the University of Michigan Hospital. Tissue was frozen in OCT and sectioned 10 μm thick using a Cryostat. The sections were thawed before staining with 10 μM RTS*-Cy5 for 15 minutes at RT. Tissues were then washed with PBS, fixed with 4% PFA for 10 min at RT, and counterstained with DAPI with Prolong Gold. Fluorescence was imaged and quantified as outlined above.
Specimens of normal colonic mucosa, adenoma, and adenocarcinoma from the right side (proximal) of the colon were obtained from routine surveillance colonoscopy and surgically removed by endoscopic mucosal resection. The tissues were frozen in OCT (Sakura Finetek), cut in 10 μm sections, and incubated with pep*-Cy5 (5 μM) in 1×PBS for 15 minutes at RT. The sections were washed 3× with PBS. Confocal fluorescence images were collected from these sections with DAPI, FITC and Cy5 filter sets (Leica TCS SP5 Microsystems).
The mean fluorescence intensities (±SEM) from binding of pep*-Cy5 were measured for normal colonic mucosa (n=4, 7±2 AU), adenoma (n=6, 26±4 AU) and adenocarcinoma (n=5, 31±4 AU), P<0.001, unpaired t-test (FIG. 6, scale bar 500 μm). […] We found pep*-Cy5 and anti-claudin-1 mAb to stain colonic adenomas and adenocarcinomas in 11/12 (92%) and 10/10 (100%) sections, respectively.

SW620 cells = experiment: Confocal signal and photostability of Cy5- versus FITC-labeled peptide on cells; assay type: cell-based, human; details: for mean (±std) fluorescence intensity: 10 μM, 4° C., 1 hour, n=6 cells
Description: We incubated pep*-Cy5 (RTS*-Cy5) and pep*-FITC ([…]) (10 μM) (FIG. 4A) with human colon adenocarcinoma (SW620) cells that over-express Claudin-1 at 4° C. for 1 hour. A supercontinuum “white light” laser provided continuous excitation at 1.5 mW for both λex=647 and 488 nm. Confocal images (Leica TCS SP5 Microsystems) were collected using Cy5 and FITC filters every 2 min. At time 0 min, peptide (RTS*-Cy5) binding to the cell surface (arrow) is shown, scale bar 10 μm (FIG. 4B). The mean (±std) fluorescence intensities for the Cy5 and FITC-labeled peptides, measured from n=6 cells, were 58.4±3.7 and 3.1±0.6 A.U. respectively, resulting in ˜20-fold increase in signal using the NIR fluorophore. We also found a 8.5% reduction in fluorescence intensity for pep*-Cy5 in comparison to 32% for pep*-FITC at 12 min, resulting ˜4-fold improvement in photostability (FIG. 4C).

[2] = at 12 min of continuous excitation

signal for siCL versus siCLDN1 cells (claudin-1 (CLDN1); SW620 cells, control siRNA versus CLDN1 siRNA, 3 replicate slides): 0.80 fold-change
binding to the surface of SW620 cells (claudin-1 (CLDN1); confocal microscopy): minimal binding
Substance: SPT*-Cy5.5: control scrambled sequence SPTPSSR labeled with Cy5.5 via the GGGSK linker (SPTPSSRGGGSK-{Cy5.5}) [reference compound]
fluorescence signal from dysplasia on endoscopy (colonic dysplasia): minimal signal

Substance: SPTPSSR [SPT*]
fluorescence signal from dysplasia on endoscopy (colonic dysplasia): minimal signal
T/B ratio (mean±SD) (colonic dysplasia; n=10 dysplasias, topical 100 μM, 5 minutes): 1.19±0.23
trans-epithelial electrical resistance (TEER) (T84 monolayers; 5 μM peptide, up to 24 hours): high
effect on tight junction function and ZO-1 distribution (T84 monolayers; 24 hours after peptide incubation): neither peptide alters tight junction function or ZO-1 distribution

Substance: pep*-Cy5: RTSPSSR labeled at the C-terminus with Cy5 via a GGGSK linker
binding to cell surface ([1]; 10 μM, 4° C., 1 hour, control tested on SW620 cells): specific binding
Pearson's correlation ρ, co-localization with anti-claudin-1 antibody ([1]; SW620 cells): 0.56
mean fluorescence intensity (±SEM) (human colonic tissues; adenocarcinoma, n=5): 31±4 AU
sections stained (human colonic tissues; adenocarcinomas, 10/10 sections): 100%
mean fluorescence intensity (±SEM) (human colonic tissues; adenoma, n=6): 26±4 AU
sections stained (human colonic tissues; colonic adenomas, 11/12 sections): 92%
mean fluorescence intensity (±SEM) (human colonic tissues; normal colonic mucosa, n=4): 7±2 AU
mean (±std) fluorescence intensity (SW620 cells): 58.4±3.7 A.U.
increase in signal using Cy5 label versus FITC (SW620 cells; SW620 cells): ~20 fold
improvement in photostability compared to FITC-labeled peptide (SW620 cells; [2]): ~4 fold
reduction in fluorescence intensity (SW620 cells; [2]): 8.5%

Substance: pep*-FITC: RTSPSSR labeled at the C-terminus with FITC via a GGGSK linker
mean (±std) fluorescence intensity (SW620 cells): 3.1±0.6 A.U.
reduction in fluorescence intensity (SW620 cells; [2]): 32%
